Assays:
Test in all cases: cells
Format in all cases: functional, cell-based, Homo sapiens
[1] = tested on: NB5; conditions: Homo sapiens, NB5;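 further: growth inhibition of NB5 cells, read out as cell viability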
Description: SANGER: Inhibition of human NB5 cell growth in a cell viability assay.

[2] = tested on: L-363; conditions: Homo sapiens, L-363
Description: SANGER: Inhibition of human L-363 cell growth in a cell viability assay.

[3] = tested on: HT-144; conditions: Homo sapiens, HT-144
Description: SANGER: Inhibition of human HT-144 cell growth in a cell viability assay.

[4] = tested on: SNU-5; conditions: Homo sapiens, SNU-5;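 further: cell viability readout used to measure growth inhibition in human NCI-SNU-5 cells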
Description: SANGER: Inhibition of human NCI-SNU-5 cell growth in a cell viability assay.

[5] = tested on: TGW; conditions: Homo sapiens, TGW;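 further: growth inhibition of human TGW cells, read out with a cell viability assay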
Description: SANGER: Inhibition of human TGW cell growth in a cell viability assay.

[6] = tested on: NB6; conditions: Homo sapiens, NB6;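 further: growth inhibition of NB6 cells, read out by a cell viability assay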
Description: SANGER: Inhibition of human NB6 cell growth in a cell viability assay.

[7] = tested on: HD-MY-Z; conditions: Homo sapiens, HD-MY-Z;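 further: growth inhibition of HD-MY-Z cells, read out with a cell viability assay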
Description: SANGER: Inhibition of human HD-MY-Z cell growth in a cell viability assay.

[8] = tested on: NTERA-2-cl-D1; conditions: Homo sapiens, NTERA-2-cl-D1;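 further: inhibition of cell growth, measured with a cell viability assay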
Description: SANGER: Inhibition of human NTERA-S-cl-D1 cell growth in a cell viability assay.

[9] = tested on: NCI-H526; conditions: Homo sapiens, NCI-H526;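 further: growth inhibition of the human NCI-H526 cell line, measured by a cell viability assay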
Description: SANGER: Inhibition of human NCI-H526 cell growth in a cell viability assay.

[10] = tested on: NCI-H1304; conditions: Homo sapiens, NCI-H1304;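 further: growth inhibition of the cancer cell line, measured in a cell viability assay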
Description: SANGER: Inhibition of human NCI-H1304 cell growth in a cell viability assay.

[11] = tested on: ES1; conditions: Homo sapiens, ES1;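 further: growth inhibition of ES1 cells, read out with a cell viability assay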
Description: SANGER: Inhibition of human ES1 cell growth in a cell viability assay.

[12] = tested on: SK-N-DZ; conditions: Homo sapiens, SK-N-DZ;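 further: growth inhibition of the cancer cell line, read out through a viability assay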
Description: SANGER: Inhibition of human SK-N-DZ cell growth in a cell viability assay.

[13] = tested on: SK-UT-1; conditions: Homo sapiens, SK-UT-1;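 further: growth inhibition of SK-UT-1 cells, measured by a cell viability assay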
Description: SANGER: Inhibition of human SK-UT-1 cell growth in a cell viability assay.

[14] = tested on: KNS-81-FD; conditions: Homo sapiens, KNS-81-FD;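 further: growth inhibition of KNS-81-FD cells, read out with a cell viability assay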
Description: SANGER: Inhibition of human KNS-81-FD cell growth in a cell viability assay.

[15] = tested on: EKVX; conditions: Homo sapiens, EKVX;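 further: growth inhibition of human EKVX cells, read out with a cell viability assay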
Description: SANGER: Inhibition of human EKVX cell growth in a cell viability assay.

[16] = tested on: COR-L88; conditions: Homo sapiens, COR-L88;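 further: growth inhibition of COR-L88 cells, read out with a cell viability assay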
Description: SANGER: Inhibition of human COR-L88 cell growth in a cell viability assay.

[17] = tested on: MSTO-211H; conditions: Homo sapiens, MSTO-211H
Description: SANGER: Inhibition of human MSTO-211H cell growth in a cell viability assay.

[18] = tested on: EW-24; conditions: Homo sapiens, EW-24;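 further: human EW-24 cancer cell line, growth inhibition read out via a cell viability assay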
Description: SANGER: Inhibition of human EW-24 cell growth in a cell viability assay.

[19] = tested on: AM-38; conditions: Homo sapiens, AM-38;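 further: growth inhibition of AM-38 cells of human origin, read out by a cell viability assay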
Description: SANGER: Inhibition of human AM-38 cell growth in a cell viability assay.

[20] = tested on: OCUB-M; conditions: Homo sapiens, OCUB-M;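 further: growth inhibition of the cancer cell line, read out through a cell viability assay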
Description: SANGER: Inhibition of human OCUB-M cell growth in a cell viability assay.

[21] = tested on: UACC-257; conditions: Homo sapiens, UACC-257
Description: SANGER: Inhibition of human UACC-257 cell growth in a cell viability assay.

[22] = tested on: SK-N-FI; conditions: Homo sapiens, SK-N-FI;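 further: cell viability assay measuring growth inhibition of human SK-N-FI cells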
Description: SANGER: Inhibition of human SK-N-FI cell growth in a cell viability assay.

[23] = tested on: CP66-MEL; conditions: Homo sapiens, CP66-MEL;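 further: growth inhibition of CP66-MEL cells determined in a cell viability assay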
Description: SANGER: Inhibition of human CP66-MEL cell growth in a cell viability assay.

[24] = tested on: LU-139; conditions: Homo sapiens, LU-139
Description: SANGER: Inhibition of human LU-139 cell growth in a cell viability assay.

[25] = tested on: NB69; conditions: Homo sapiens, NB69;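 further: growth inhibition of NB69 cells, determined by a cell viability assay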
Description: SANGER: Inhibition of human NB69 cell growth in a cell viability assay.

[26] = tested on: SW 962; conditions: Homo sapiens, SW 962;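 further: growth inhibition of human SW962 cells, read out by a cell viability assay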
Description: SANGER: Inhibition of human SW962 cell growth in a cell viability assay.

[27] = tested on: NCI-H209; conditions: Homo sapiens, NCI-H209;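 further: growth inhibition of human NCI-H209 cells, measured by a cell viability assay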
Description: SANGER: Inhibition of human NCI-H209 cell growth in a cell viability assay.

[28] = tested on: NB12; conditions: Homo sapiens, NB12;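 further: growth inhibition of human NB12 cells, read out by a cell viability assay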
Description: SANGER: Inhibition of human NB12 cell growth in a cell viability assay.

[29] = tested on: NCI-H69; conditions: Homo sapiens, NCI-H69;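 further: growth inhibition of the cell line, read out with a cell viability assay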
Description: SANGER: Inhibition of human NCI-H69 cell growth in a cell viability assay.

[30] = tested on: HEL; conditions: Homo sapiens, HEL;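 further: growth inhibition of HEL cells, read out with a cell viability assay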
Description: SANGER: Inhibition of human HEL cell growth in a cell viability assay.

[31] = tested on: NCI-H747; conditions: Homo sapiens, NCI-H747;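 further: growth inhibition of human NCI-H747 cells, read out by a cell viability assay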
Description: SANGER: Inhibition of human NCI-H747 cell growth in a cell viability assay.

[32] = tested on: C8166; conditions: Homo sapiens, C8166;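 further: growth inhibition of human C8166 cells measured by a cell viability assay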
Description: SANGER: Inhibition of human C8166 cell growth in a cell viability assay.

[33] = tested on: TGBC1TKB; conditions: Homo sapiens, TGBC1TKB;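 further: growth inhibition of TGBC1TKB cells, read out by a cell viability assay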
Description: SANGER: Inhibition of human TGBC1TKB cell growth in a cell viability assay.

[34] = tested on: ATN-1; conditions: Homo sapiens, ATN-1;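 further: growth inhibition of human ATN-1 cells, read out with a cell viability assay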
Description: SANGER: Inhibition of human ATN-1 cell growth in a cell viability assay.

[35] = tested on: MS-1; conditions: Homo sapiens, MS-1;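 further: growth inhibition of MS-1 cells, read out by cell viability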
Description: SANGER: Inhibition of human MS-1 cell growth in a cell viability assay.

[36] = tested on: DOHH-2; conditions: Homo sapiens, DOHH-2;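 further: growth inhibition of human DOHH-2 cells, read out with a cell viability assay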
Description: SANGER: Inhibition of human DOHH-2 cell growth in a cell viability assay.

[37] = tested on: VA-ES-BJ; conditions: Homo sapiens, VA-ES-BJ;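 further: growth inhibition of the VA-ES-BJ cell line, read out by a cell viability assay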
Description: SANGER: Inhibition of human VA-ES-BJ cell growth in a cell viability assay.

[38] = tested on: NCI-H1092; conditions: Homo sapiens, NCI-H1092;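 further: cell growth inhibition measured with a cell viability assay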
Description: SANGER: Inhibition of human NCI-H1092 cell growth in a cell viability assay.

[39] = tested on: HCC1187; conditions: Homo sapiens, HCC1187;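 further: growth inhibition of HCC1187 cells, read out with a cell viability assay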
Description: SANGER: Inhibition of human HCC1187 cell growth in a cell viability assay.

[40] = tested on: GB-1; conditions: Homo sapiens, GB-1;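 further: growth of GB-1 cells judged by a viability assay, IC50 marks the concentration inhibiting growth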
Description: SANGER: Inhibition of human GB-1 cell growth in a cell viability assay.

[41] = tested on: SCC-15; conditions: Homo sapiens, SCC-15;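 further: growth inhibition of SCC-15 cells, read out with a cell viability assay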
Description: SANGER: Inhibition of human SCC-15 cell growth in a cell viability assay.

[42] = tested on: HCC2157; conditions: Homo sapiens, HCC2157;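 further: growth inhibition of the cancer cell line, read out as cell viability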
Description: SANGER: Inhibition of human HCC2157 cell growth in a cell viability assay.

[43] = tested on: IST-MEL1; conditions: Homo sapiens, IST-MEL1;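 further: growth inhibition of the cell line, read out with a cell viability assay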
Description: SANGER: Inhibition of human IST-MEL1 cell growth in a cell viability assay.

[44] = tested on: CTV-1; conditions: Homo sapiens, CTV-1;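 further: growth inhibition of the cell line, read out with a cell viability assay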
Description: SANGER: Inhibition of human CTV-1 cell growth in a cell viability assay.

[45] = tested on: A3-KAW; conditions: Homo sapiens, A3-KAW;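 further: growth inhibition of human A3-KAW cells, read out with a cell viability assay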
Description: SANGER: Inhibition of human A3-KAW cell growth in a cell viability assay.

[46] = tested on: D-247MG; conditions: Homo sapiens, D-247MG
Description: SANGER: Inhibition of human D-247MG cell growth in a cell viability assay.

[47] = tested on: HOP-62; conditions: Homo sapiens, HOP-62;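 further: cell growth inhibition determined with a viability assay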
Description: SANGER: Inhibition of human HOP-62 cell growth in a cell viability assay.

[48] = tested on: DMS-79; conditions: Homo sapiens, DMS-79;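 further: growth inhibition measured with a cell viability assay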
Description: SANGER: Inhibition of human DMS-79 cell growth in a cell viability assay.

[49] = tested on: IA-LM; conditions: Homo sapiens, IA-LM;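 further: cell viability assay measuring growth inhibition of human IA-LM cells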
Description: SANGER: Inhibition of human IA-LM cell growth in a cell viability assay.

`COc1cc(N2CCN(C)CC2)ccc1Nc1ncc2c(n1)N(C)c1ccccc1C(=O)N2C` was tested, and the IC50 [1] was > 8000 nM, the IC50 [2] was > 8000 nM and the IC50 [3] was > 8000 nM. For the same compound, the IC50 [4] was > 8000 nM, the IC50 [5] was > 8000 nM and the IC50 [6] was > 8000 nM. The IC50 [7] was > 8000 nM, the IC50 [8] was 4560 nM and the IC50 [9] was > 8000 nM. For the same compound, the IC50 [10] was > 8000 nM, the IC50 [11] was > 8000 nM and the IC50 [12] was > 8000 nM. For the same compound, the IC50 [13] was > 8000 nM, the IC50 [14] was > 8000 nM and the IC50 [15] was > 8000 nM. The IC50 [16] was > 8000 nM, the IC50 [17] was > 8000 nM and the IC50 [18] was > 8000 nM. The IC50 [19] was > 8000 nM, the IC50 [20] was > 8000 nM and the IC50 [21] was 7110 nM. The IC50 [22] was > 8000 nM, the IC50 [23] was > 8000 nM and the IC50 [24] was 6860 nM. For the same compound, the IC50 [25] was 7850 nM, the IC50 [26] was > 8000 nM and the IC50 [27] was > 8000 nM. The IC50 [28] was > 8000 nM, the IC50 [29] was > 8000 nM and the IC50 [30] was 5950 nM. The IC50 [31] was > 8000 nM, the IC50 [32] was > 8000 nM and the IC50 [33] was > 8000 nM. For the same compound, the IC50 [34] was > 8000 nM, the IC50 [35] was 4670 nM and the IC50 [36] was 2570 nM. The IC50 [37] was > 8000 nM, the IC50 [38] was > 8000 nM and the IC50 [39] was > 8000 nM. For the same compound, the IC50 [40] was > 8000 nM, the IC50 [41] was > 8000 nM and the IC50 [42] was > 8000 nM. For the same compound, the IC50 [43] was > 8000 nM, the IC50 [44] was > 8000 nM and the IC50 [45] was 4280 nM. For the same compound, the IC50 [46] was 1580 nM, the IC50 [47] was 6600 nM and the IC50 [48] was > 8000 nM.
With `N#Cc1c(O)c2c(-c3ccc(-c4ccccc4O)cc3)csc2[nH]c1=O` the IC50 [1] was > 1020 nM, the IC50 [2] was 211 nM and the IC50 [3] was > 1020 nM. For the same compound, the IC50 [4] was 944 nM, the IC50 [5] was 311 nM and the IC50 [6] was > 1020 nM. For the same compound, the IC50 [7] was 148 nM, the IC50 [8] was > 1020 nM and the IC50 [9] was 468 nM. The IC50 [10] was 634 nM, the IC50 [11] was > 1020 nM and the IC50 [12] was 802 nM. The IC50 [13] was > 1020 nM, the IC50 [14] was > 1020 nM and the IC50 [15] was > 1020 nM. The IC50 [16] was 725 nM, the IC50 [17] was > 1020 nM and the IC50 [18] was > 1020 nM. The IC50 [19] was 64.4 nM, the IC50 [20] was > 1020 nM and the IC50 [21] was > 1020 nM. The IC50 [22] was > 1020 nM, the IC50 [49] was > 1020 nM and the IC50 [23] was > 1020 nM. The IC50 [24] was > 1020 nM, the IC50 [25] was 686 nM and the IC50 [26] was > 1020 nM. For the same compound, the IC50 [27] was > 1020 nM, the IC50 [28] was > 1020 nM and the IC50 [29] was > 1020 nM. For the same compound, the IC50 [30] was 107 nM, the IC50 [31] was > 1020 nM and the IC50 [32] was 66.2 nM. The IC50 [33] was > 1020 nM, the IC50 [34] was 499 nM and the IC50 [35] was 827 nM. The IC50 [36] was 245 nM, the IC50 [37] was > 1020 nM and the IC50 [38] was 541 nM. For the same compound, the IC50 [39] was > 1020 nM, the IC50 [40] was > 1020 nM and the IC50 [41] was > 1020 nM. For the same compound, the IC50 [42] was 105 nM, the IC50 [43] was > 1020 nM and the IC50 [44] was 73 nM. For the same compound, the IC50 [45] was 91.7 nM, the IC50 [46] was > 1020 nM and the IC50 [47] was > 1020 nM. The IC50 [48] was > 1020 nM.

Source: ChEMBL document CHEMBL1201861, “Genomics of Drug Sensitity in Cancer screening data, Wellcome Trust Sanger Institute”
